In US20110003776A1, “[…] DERIVATIVES, PHARMACEUTICAL COMPOSITIONS AND THERAPEUTIC TREATMENT THEREOF” (TRUSTEES OF BOSTON UNIVERSITY, priority 2009, published 2011):

Tested on: Mycobacterium tuberculosis
Test: microplate Alamar Blue assay (MABA) against Mycobacterium tuberculosis
Type: cell-based
Conditions: MIC and IC50 values only in Scheme 5
From the text: The skilled artisan is well aware of the methods for measuring growth of mycobacteria. A common method of detecting growth in mycobacterial cultures involves the use of […]. An exemplary method is the microplate Alamar Blue assay (MABA), described in Falzari, et al., Antimicrob. Agents Chemother. 2005, 49, 1447-1454 (2005), content of which is herein incorporated by reference.
The library compounds of ureas 7, amides 8, and sulfonamides 9 were screened for activity against Mycobacterium tuberculosis using the microplate Alamar Blue assay (MABA), described in Falzari, et al., Antimicrob. Agents Chemother. 2005, 49, 1447-1454 (2005), content of which is herein incorporated by reference. The MIC values were established after initial positive hits were identified (>80% inhibition at 10 μg/mL). Cytotoxicity assays were performed on Vero cells with IC50 values greater than 50 μg/mL under the assay conditions. Activities were subsequently validated in duplicate assays with resynthesized compound.

| Structure (SMILES) | activity against Mycobacterium tuberculosis |
| --- | --- |
| COc1ccc(NC(=O)N2CCc3nc(-c4ccc(OC)cc4C)c4c(c3C2)CO[C@@H](c2ccccc2)C4)cc1 [7{4,2}, (R)-6-(4-Methoxy-2-methylphenyl)-N-(4-methoxyphenyl)-8-phenyl-3,4,7,8-tetrahydro-1H-pyrano[4,3-c][1,6]naphthyridine-2(10H)-carboxamide] | significant activities |
| COc1ccc(-c2nc3c(c4c2C[C@H](c2ccccc2)OC4)CN(C(=O)N[C@H](C)c2ccccc2)CC3)c(C)c1 [7{4,1}] | significant activities |
| COc1ccc(-c2nc3c(c4c2C[C@H](c2ccccc2)OC4)CN(S(=O)(=O)c2ccc(C#N)cc2)CC3)c(C)c1 [9{4,4}] | significant activities |
